Test results as given in PubChem BioAssay (NCI).
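Compound exposure: 48 hours, 5 concentrations, 96-well plates. TGI denotes the concentration required for complete inhibition of growth.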

Experiments:
Test in all cases: inhibition of tumour cell growth, NCI panel, 48 h
786-0 renal = test system: 786-0 renal
A549 NSCLC = test system: A549 NSCLC
ACHN renal = test system: ACHN renal
CAKI-1 renal = test system: CAKI-1 renal
CCRF-CEM leukemia = test system: CCRF-CEM leukemia
COLO 205 colon = test system: COLO 205 colon
DLD-1 colon = test system: DLD-1 colon
DMS 114 small cell lung = test system: DMS 114 small cell lung
DMS 273 small cell lung = test system: DMS 273 small cell lung
EKVX NSCLC = test system: EKVX NSCLC
HCC-2998 colon = test system: HCC-2998 colon
HCT-116 colon = test system: HCT-116 colon
HCT-15 colon = test system: HCT-15 colon
HL-60(TB) leukemia = test system: HL-60(TB) leukemia
HOP-62 NSCLC = test system: HOP-62 NSCLC
HOP-92 NSCLC = test system: HOP-92 NSCLC
HT29 colon = test system: HT29 colon
IGROV1 ovarian = test system: IGROV1 ovarian
K-562 leukemia = test system: K-562 leukemia
KM12 colon = test system: KM12 colon
KM20L2 colon = test system: KM20L2 colon
LOX IMVI melanoma = test system: LOX IMVI melanoma
LXFL 529 NSCLC = test system: LXFL 529 NSCLC
M14 melanoma = test system: M14 melanoma
M19-MEL melanoma = test system: M19-MEL melanoma
MALME-3M melanoma = test system: MALME-3M melanoma
MOLT-4 leukemia = test system: MOLT-4 leukemia
NCI-H226 lung = test system: NCI-H226 lung
NCI-H23 lung = test system: NCI-H23 lung
NCI-H460 lung = test system: NCI-H460 lung
NCI-H522 lung = test system: NCI-H522 lung
OVCAR-3 ovarian = test system: OVCAR-3 ovarian
OVCAR-4 ovarian = test system: OVCAR-4 ovarian
OVCAR-5 ovarian = test system: OVCAR-5 ovarian
OVCAR-8 ovarian = test system: OVCAR-8 ovarian
RPMI-8226 leukemia = test system: RPMI-8226 leukemia
RXF 393 renal = test system: RXF 393 renal
SF-268 CNS = test system: SF-268 CNS
SF-295 CNS = test system: SF-295 CNS
SF-539 CNS = test system: SF-539 CNS
SK-MEL-2 melanoma = test system: SK-MEL-2 melanoma
SK-MEL-28 melanoma = test system: SK-MEL-28 melanoma
SK-MEL-5 melanoma = test system: SK-MEL-5 melanoma
SK-OV-3 ovarian = test system: SK-OV-3 ovarian
SN12C renal = test system: SN12C renal
SNB-19 CNS = test system: SNB-19 CNS
SNB-75 CNS = test system: SNB-75 CNS
SNB-78 CNS = test system: SNB-78 CNS
SR leukemia = test system: SR leukemia
SW-620 colon = test system: SW-620 colon
TK-10 renal = test system: TK-10 renal
U251 CNS = test system: U251 CNS
UACC-257 melanoma = test system: UACC-257 melanoma
UACC-62 melanoma = test system: UACC-62 melanoma
UO-31 renal = test system: UO-31 renal
XF 498 CNS = test system: XF 498 CNS
A498 renal = test system: A498 renal
HOP-18 NSCLC = test system: HOP-18 NSCLC

With COc1ccc(/C=N/N=C(\N)NO)cc1OC the TGI (786-0 renal) was over 100 µM, the TGI (A549 NSCLC) was 95.8 µM and the TGI (ACHN renal) was over 100 µM. It also gave a TGI (CAKI-1 renal) of 92.3 µM, a TGI (CCRF-CEM leukemia) of over 100 µM and a TGI (COLO 205 colon) of over 100 µM. The TGI (DLD-1 colon) was over 100 µM, the TGI (DMS 114 small cell lung) was 92.5 µM and the TGI (DMS 273 small cell lung) was over 100 µM. For the same compound, the TGI (EKVX NSCLC) was over 100 µM, the TGI (HCC-2998 colon) was over 100 µM and the TGI (HCT-116 colon) was over 100 µM. For the same compound, the TGI (HCT-15 colon) was over 100 µM, the TGI (HL-60(TB) leukemia) was over 100 µM and the TGI (HOP-62 NSCLC) was over 100 µM. It also gave a TGI (HOP-92 NSCLC) of over 100 µM, a TGI (HT29 colon) of over 100 µM and a TGI (IGROV1 ovarian) of over 100 µM. It also gave a TGI (K-562 leukemia) of over 100 µM, a TGI (KM12 colon) of over 100 µM and a TGI (KM20L2 colon) of over 100 µM. It also gave a TGI (LOX IMVI melanoma) of over 100 µM, a TGI (LXFL 529 NSCLC) of over 100 µM and a TGI (M14 melanoma) of 96.9 µM. For the same compound, the TGI (M19-MEL melanoma) was over 100 µM, the TGI (MALME-3M melanoma) was over 100 µM and the TGI (MOLT-4 leukemia) was over 100 µM. It also gave a TGI (NCI-H226 lung) of over 100 µM, a TGI (NCI-H23 lung) of over 100 µM and a TGI (NCI-H460 lung) of over 100 µM. It also gave a TGI (NCI-H522 lung) of 79.9 µM, a TGI (OVCAR-3 ovarian) of over 100 µM and a TGI (OVCAR-4 ovarian) of over 100 µM. For the same compound, the TGI (OVCAR-5 ovarian) was over 100 µM, the TGI (OVCAR-8 ovarian) was over 100 µM and the TGI (RPMI-8226 leukemia) was over 100 µM. It also gave a TGI (RXF 393 renal) of 67.4 µM, a TGI (SF-268 CNS) of 73.6 µM and a TGI (SF-295 CNS) of over 100 µM. For the same compound, the TGI (SF-539 CNS) was 64.9 µM, the TGI (SK-MEL-2 melanoma) was over 100 µM and the TGI (SK-MEL-28 melanoma) was over 100 µM. For the same compound, the TGI (SK-MEL-5 melanoma) was 58.3 µM, the TGI (SK-OV-3 ovarian) was over 100 µM and the TGI (SN12C renal) was over 100 µM. It also gave a TGI (SNB-19 CNS) of over 100 µM, a TGI (SNB-75 CNS) of over 100 µM and a TGI (SNB-78 CNS) of over 100 µM. It also gave a TGI (SR leukemia) of over 100 µM, a TGI (SW-620 colon) of over 100 µM and a TGI (TK-10 renal) of over 100 µM. It also gave a TGI (U251 CNS) of over 100 µM, a TGI (UACC-257 melanoma) of over 100 µM and a TGI (UACC-62 melanoma) of 72.1 µM. The TGI (UO-31 renal) was over 100 µM and the TGI (XF 498 CNS) was over 100 µM.
Work on CCOC(=O)CC(=O)Sc1ccccc1 yielded a TGI (786-0 renal) of 37 µM, a TGI (A498 renal) of 57.4 µM and a TGI (A549 NSCLC) of 60.6 µM. For the same compound, the TGI (ACHN renal) was 65.7 µM, the TGI (CCRF-CEM leukemia) was 51.3 µM and the TGI (COLO 205 colon) was 52.9 µM. It also gave a TGI (DLD-1 colon) of 53.6 µM, a TGI (DMS 114 small cell lung) of 32 µM and a TGI (DMS 273 small cell lung) of 46 µM. It also gave a TGI (EKVX NSCLC) of 74 µM, a TGI (HCC-2998 colon) of 96 µM and a TGI (HCT-116 colon) of 26.8 µM. The TGI (HL-60(TB) leukemia) was 48.6 µM, the TGI (HOP-18 NSCLC) was over 100 µM and the TGI (HOP-62 NSCLC) was 65.6 µM. For the same compound, the TGI (HOP-92 NSCLC) was 89.5 µM, the TGI (HT29 colon) was 48.7 µM and the TGI (IGROV1 ovarian) was 26 µM. It also gave a TGI (K-562 leukemia) of 58.7 µM, a TGI (KM12 colon) of over 100 µM and a TGI (KM20L2 colon) of 47.5 µM. The TGI (LOX IMVI melanoma) was 26.8 µM, the TGI (M14 melanoma) was 31.7 µM and the TGI (M19-MEL melanoma) was 48.4 µM. For the same compound, the TGI (MALME-3M melanoma) was over 100 µM, the TGI (MOLT-4 leukemia) was 72.6 µM and the TGI (NCI-H226 lung) was 58.4 µM. It also gave a TGI (NCI-H23 lung) of 70.7 µM, a TGI (NCI-H460 lung) of 73.8 µM and a TGI (NCI-H522 lung) of 24.3 µM. For the same compound, the TGI (OVCAR-3 ovarian) was 42.7 µM, the TGI (OVCAR-4 ovarian) was over 100 µM and the TGI (OVCAR-5 ovarian) was over 100 µM. It also gave a TGI (OVCAR-8 ovarian) of 34.6 µM, a TGI (RPMI-8226 leukemia) of 51 µM and a TGI (RXF 393 renal) of 25.9 µM. It also gave a TGI (SF-268 CNS) of 23.1 µM, a TGI (SF-295 CNS) of 86.5 µM and a TGI (SF-539 CNS) of 28.6 µM. The TGI (SK-MEL-2 melanoma) was 67.9 µM, the TGI (SK-MEL-28 melanoma) was 35 µM and the TGI (SK-MEL-5 melanoma) was 58.5 µM. For the same compound, the TGI (SK-OV-3 ovarian) was 49.3 µM, the TGI (SN12C renal) was 24.6 µM and the TGI (SNB-19 CNS) was over 100 µM. The TGI (SR leukemia) was 58.1 µM, the TGI (SW-620 colon) was 39.4 µM and the TGI (TK-10 renal) was over 100 µM. It also gave a TGI (U251 CNS) of 40.2 µM, a TGI (UACC-257 melanoma) of 91.4 µM and a TGI (UACC-62 melanoma) of 30.7 µM. For the same compound, the TGI (UO-31 renal) was 28.4 µM and the TGI (XF 498 CNS) was 93.4 µM.
Clc1ccc(-n2nnc(C3=NCCN3)c2-c2ccccc2)cc1 showed a TGI (786-0 renal) of over 100 µM, a TGI (A498 renal) of over 100 µM and a TGI (A549 NSCLC) of over 100 µM. The TGI (ACHN renal) was over 100 µM, the TGI (CAKI-1 renal) was over 100 µM and the TGI (CCRF-CEM leukemia) was over 100 µM. For the same compound, the TGI (COLO 205 colon) was over 100 µM, the TGI (DLD-1 colon) was over 100 µM and the TGI (DMS 114 small cell lung) was over 100 µM. It also gave a TGI (DMS 273 small cell lung) of over 100 µM, a TGI (EKVX NSCLC) of over 100 µM and a TGI (HCC-2998 colon) of over 100 µM. The TGI (HCT-116 colon) was over 100 µM, the TGI (HCT-15 colon) was over 100 µM and the TGI (HL-60(TB) leukemia) was over 100 µM. It also gave a TGI (HOP-18 NSCLC) of over 100 µM, a TGI (HOP-62 NSCLC) of over 100 µM and a TGI (HOP-92 NSCLC) of over 100 µM. It also gave a TGI (HT29 colon) of over 100 µM, a TGI (IGROV1 ovarian) of over 100 µM and a TGI (K-562 leukemia) of over 100 µM. The TGI (KM12 colon) was over 100 µM, the TGI (KM20L2 colon) was over 100 µM and the TGI (LOX IMVI melanoma) was over 100 µM. For the same compound, the TGI (LXFL 529 NSCLC) was over 100 µM, the TGI (M14 melanoma) was over 100 µM and the TGI (M19-MEL melanoma) was over 100 µM. It also gave a TGI (MALME-3M melanoma) of over 100 µM, a TGI (MOLT-4 leukemia) of over 100 µM and a TGI (NCI-H226 lung) of over 100 µM. The TGI (NCI-H23 lung) was over 100 µM, the TGI (NCI-H460 lung) was over 100 µM and the TGI (NCI-H522 lung) was over 100 µM. The TGI (OVCAR-3 ovarian) was over 100 µM, the TGI (OVCAR-4 ovarian) was over 100 µM and the TGI (OVCAR-5 ovarian) was over 100 µM. It also gave a TGI (OVCAR-8 ovarian) of over 100 µM, a TGI (RPMI-8226 leukemia) of over 100 µM and a TGI (RXF 393 renal) of over 100 µM. It also gave a TGI (SF-268 CNS) of over 100 µM, a TGI (SF-295 CNS) of over 100 µM and a TGI (SF-539 CNS) of over 100 µM. The TGI (SK-MEL-2 melanoma) was over 100 µM, the TGI (SK-MEL-28 melanoma) was over 100 µM and the TGI (SK-MEL-5 melanoma) was over 100 µM. For the same compound, the TGI (SK-OV-3 ovarian) was over 100 µM, the TGI (SN12C renal) was over 100 µM and the TGI (SNB-19 CNS) was over 100 µM. The TGI (SNB-75 CNS) was over 100 µM, the TGI (SNB-78 CNS) was over 100 µM and the TGI (SR leukemia) was over 100 µM. The TGI (SW-620 colon) was over 100 µM, the TGI (TK-10 renal) was over 100 µM and the TGI (U251 CNS) was over 100 µM. The TGI (UACC-257 melanoma) was over 100 µM, the TGI (UACC-62 melanoma) was over 100 µM and the TGI (UO-31 renal) was over 100 µM. The TGI (XF 498 CNS) was over 100 µM.
